Experimental data from patent US4476120A, “Thiolic derivatives of erythromycin having therapeutic activity, and pharmaceutical compositions containing them” (Sigma Tau Indistrie Farmaceutiche Riunites, p.A, priority 1982, dated 1984).
Values after ≈ are worked out from the molar mass of the structure shown.

Assays:
[1] = C.A. 93 38279f; cited from earlier work
[2] = test system: Staph. albus SS 03; type: cell-based; settings: Brain Heart Infusion, estolate and RV11-RV15 previously hydrolized, unit assumed
[3] = test system: Staph. albus SS 04; type: cell-based; settings: Brain Heart Infusion, estolate and RV11-RV15 previously hydrolized, unit assumed
[4] = test system: Staph. aureus SS 08; type: cell-based; settings: Brain Heart Infusion, estolate and RV11-RV15 previously hydrolized, unit assumed
[5] = test system: Staph. aureus SS 09; type: cell-based; settings: Brain Heart Infusion, estolate and RV11-RV15 previously hydrolized, unit assumed
[6] = test system: Strept. haemolyticus SS 17; type: cell-based; settings: Brain Heart Infusion, estolate and RV11-RV15 previously hydrolized, unit assumed
[7] = test system: Strept. haemolyticus SS 18; type: cell-based; settings: Brain Heart Infusion, estolate and RV11-RV15 previously hydrolized, unit assumed
[8] = test system: Strept. faecalis SS 19; type: cell-based; settings: Brain Heart Infusion, estolate and RV11-RV15 previously hydrolized, unit assumed
[9] = test system: S. lutea ATCC 9341; type: cell-based; settings: Brain Heart Infusion, estolate and RV11-RV15 previously hydrolized, unit assumed
[10] = test system: B. subtilis ATCC 6633; type: cell-based; settings: Brain Heart Infusion, estolate and RV11-RV15 previously hydrolized, unit assumed
[11] = test system: B. subtilis SS 127; type: cell-based; settings: Brain Heart Infusion, estolate and RV11-RV15 previously hydrolized, unit assumed
[12] = test system: B. cereus ATCC 11778; type: cell-based; settings: Brain Heart Infusion, estolate and RV11-RV15 previously hydrolized, unit assumed
[13] = test system: B. anthranis SS 08; type: cell-based; settings: Brain Heart Infusion, estolate and RV11-RV15 previously hydrolized, unit assumed
[14] = test system: Br. melitensis SS 19; type: cell-based; settings: unit assumed
[15] = test system: Br. abortus SS 7; type: cell-based; settings: Brain Heart Infusion, estolate and RV11-RV15 previously hydrolized, unit assumed
[16] = test system: Citrobacter SS 05; type: cell-based; settings: Brain Heart Infusion, estolate and RV11-RV15 previously hydrolized, unit assumed
[17] = test system: Citrobacter SS 09; type: cell-based; settings: Brain Heart Infusion, estolate and RV11-RV15 previously hydrolized, unit assumed
[18] = test system: S. infantis SS 08; type: cell-based; settings: Brain Heart Infusion, estolate and RV11-RV15 previously hydrolized, unit assumed
[19] = test system: S. heidelberg SS 18; type: cell-based; settings: Brain Heart Infusion, estolate and RV11-RV15 previously hydrolized, unit assumed
[20] = test system: E. cloacae SS 07; type: cell-based; settings: Brain Heart Infusion, estolate and RV11-RV15 previously hydrolized, unit assumed
[21] = test system: E. aerogenes SS 011; type: cell-based; settings: Brain Heart Infusion, estolate and RV11-RV15 previously hydrolized, unit assumed
[22] = test system: Ps. aeruginosa SS 10; type: cell-based; settings: Brain Heart Infusion, estolate and RV11-RV15 previously hydrolized, unit assumed
[23] = test system: E. coli SS 04; type: cell-based; settings: Brain Heart Infusion, estolate and RV11-RV15 previously hydrolized, unit assumed
[24] = test system: E. coli SS 05; type: cell-based; settings: Brain Heart Infusion, estolate and RV11-RV15 previously hydrolized, unit assumed
[25] = test system: E. coli SS 06; type: cell-based; settings: Brain Heart Infusion, estolate and RV11-RV15 previously hydrolized, unit assumed
[26] = test system: E. coli SS 07; type: cell-based; settings: Brain Heart Infusion, estolate and RV11-RV15 previously hydrolized, unit assumed
[27] = test system: Pr. mirabilis SS 09; type: cell-based; settings: Brain Heart Infusion, estolate and RV11-RV15 previously hydrolized, unit assumed
[28] = test system: Pr. vulgaris SS 10; type: cell-based; settings: Brain Heart Infusion, estolate and RV11-RV15 previously hydrolized, unit assumed
[29] = test system: Kl. aerogenes SS 71; type: cell-based; settings: Brain Heart Infusion, estolate and RV11-RV15 previously hydrolized, unit assumed
[30] = test system: H. tubercolosis SS 03; type: cell-based; settings: Brain Heart Infusion, estolate and RV11-RV15 previously hydrolized, unit assumed
Excerpt: (§1) In the following table I the MIC/ml values are indicated corresponding to the lowest concentration capable of inducing a complete inhibition of the bacterial development.

[31] = test system: Kl. pneumoniae SS 04; type: cell-based; settings: Brain Heart Infusion, estolate and RV11-RV15 previously hydrolized, unit assumed
Excerpt: as §1

[32] = test system: Sr. marcescens SS 03; type: cell-based; settings: Brain Heart Infusion, estolate and RV11-RV15 previously hydrolized, unit assumed
[33] = test system: C. diphtheriae SS 19; type: cell-based; settings: Brain Heart Infusion, estolate and RV11-RV15 previously hydrolized, unit assumed
[34] = test system: D. pneumoniae SS 23; type: cell-based; settings: Brain Heart Infusion, estolate and RV11-RV15 previously hydrolized, unit assumed
[35] = test system: N. gonorreae SS 27; type: cell-based; settings: Brain Heart Infusion, estolate and RV11-RV15 previously hydrolized, unit assumed
[36] = test system: N. meningitidis SS 04; type: cell-based; settings: Brain Heart Infusion, estolate and RV11-RV15 previously hydrolized, unit assumed
[37] = test system: H. influentiae SS 02; type: cell-based; settings: Brain Heart Infusion, estolate and RV11-RV15 previously hydrolized, unit assumed
[38] = test system: H. pertussis SS 03; type: cell-based; settings: Brain Heart Infusion, estolate and RV11-RV15 previously hydrolized, unit assumed
[39] = test system: C. albicans SS 04; type: cell-based; settings: Brain Heart Infusion, estolate and RV11-RV15 previously hydrolized, unit assumed
[40] = test system: Cl. tetani SS 17; type: cell-based; settings: Brain Heart Infusion, estolate and RV11-RV15 previously hydrolized, unit assumed
[41] = test system: B. anthranis SS 09; type: cell-based; settings: B. anthranis SS 09 (14 bis); Brain Heart Infusion; estolate and RV11-RV15 previously hydrolized; unit assumed
[42] = test system: Staph. aureus SS 07; experiment: Experimental infection induced by Staph. aureus SS 07; type: in vivo, Swiss white mice; settings: Staphylococcus aureus, SS07, in Mus musculus, po, 168 h, os; Staph. aureus SS 07; mg/kg of erythromycin; survival after 7 days; read-out: ED50 (reliability limits)
Protocol: (§2) Swiss white mice of 20 g body weight were used, infected by parenteral administration of lethal amounts of pathogenic […] of Staph. aureus SS 07 and D. pneumoniae SS 23.
(§3) The antibiotics were administered at the time of injecting the infecting germ and 6 and 24 hours later. On the basis of the survival after 7 days, the ED50 values were determined, as reported in the following table II and III, wherein the reliability limits are indicated in brackets.

[43] = test system: D. pneumoniae SS 23; experiment: Experimental infection induced by D. pneumoniae SS 23; type: in vivo, Swiss white mice; settings: Streptococcus pneumoniae, SS23, in Mus musculus, po, 168 h, os; D. pneumoniae SS 23; mg/kg of erythromycin; survival after 7 days; read-out: ED50 (reliability limits)
Protocol: as §2, §3

[44] = Hematic levels in the healthy volunteer; type: in vivo, healthy volunteers; settings: 500 mg of erythromycin, average; for Hematic levels in the healthy volunteer: oral
Excerpt: For the dosing, the microbiological method using a B. subtilis strain was adopted.

[45] = Mucolytic activity: obstruction of the bronchial tract after SO2 inhalation; type: in vivo, Sprague Dawley male rats; settings: oral, 500 mg/kg; SO2, 15 days
[46] = Histological examination of bronchi after SO2 inhalation; type: in vivo, Sprague Dawley male rats; settings: oral, 500 mg/kg
[47] = in vivo, po, 100 mg/kg, 6 h
[48] = in vivo; settings: rat, po, 100 mg/kg, Hematic levels in the rat

CC(=O)N[C@@H](CS)C(=O)O [acetylcysteine]
action with respect to the activity of antibiotics [1]: inhibiting action with respect to the activity of antibiotics

CCC(=O)O[C@H]1[C@H](O[C@@H]2[C@@H](C)[C@H](O[C@H]3C[C@@](C)(OC)[C@@H](O)[C@H](C)O3)[C@@H](C)C(=O)O[C@H](CC)[C@@](C)(O)[C@H](O)[C@@H](C)C(=O)[C@H](C)C[C@@]2(C)O)O[C@H](C)C[C@@H]1N(C)C [erythromycin estolate, reference compound]
MIC [2]: 0.05 µg/mL (≈ 0.0633 µM)
MIC [3]: 0.05 µg/mL (≈ 0.0633 µM)
MIC [4]: 0.025 µg/mL (≈ 0.0316 µM)
MIC [5]: 0.05 µg/mL (≈ 0.0633 µM)
MIC [6]: 3 µg/mL (≈ 3.8 µM)
MIC [7]: 3 µg/mL (≈ 3.8 µM)
MIC [8]: 0.1 µg/mL (≈ 0.127 µM)
MIC [9]: 0.01 µg/mL (≈ 0.0127 µM)
MIC [10]: 0.01 µg/mL (≈ 0.0127 µM)
MIC [11]: 0.025 µg/mL (≈ 0.0316 µM)
MIC [12]: 0.8 µg/mL (≈ 1.01 µM)
MIC [13]: 0.4 µg/mL (≈ 0.506 µM)
MIC [14]: 3 µg/mL (≈ 3.8 µM)
MIC [15]: 6 µg/mL (≈ 7.59 µM)
MIC [16]: > 200 µg/mL
MIC [17]: > 200 µg/mL
MIC [18]: 100 µg/mL (≈ 127 µM)
MIC [19]: 100 µg/mL (≈ 127 µM)
MIC [20]: > 200 µg/mL
MIC [21]: 50 µg/mL (≈ 63.3 µM)
MIC [22]: 100 µg/mL (≈ 127 µM)
MIC [23]: 100 µg/mL (≈ 127 µM)
MIC [24]: 100 µg/mL (≈ 127 µM)
MIC [25]: 50 µg/mL (≈ 63.3 µM)
MIC [26]: 50 µg/mL (≈ 63.3 µM)
MIC [27]: > 200 µg/mL
MIC [28]: > 200 µg/mL
MIC [29]: 100 µg/mL (≈ 127 µM)
MIC [30]: 50 µg/mL (≈ 63.3 µM)
MIC [31]: 100 µg/mL (≈ 127 µM)
MIC [32]: > 200 µg/mL
MIC [33]: 0.025 µg/mL (≈ 0.0316 µM)
MIC [34]: 0.05 µg/mL (≈ 0.0633 µM)
MIC [35]: 0.8 µg/mL (≈ 1.01 µM)
MIC [36]: 1.5 µg/mL (≈ 1.9 µM)
MIC [37]: 1.5 µg/mL (≈ 1.9 µM)
MIC [38]: 0.4 µg/mL (≈ 0.506 µM)
MIC [39]: 200 µg/mL (≈ 253 µM)
MIC [40]: 0.2 µg/mL (≈ 0.253 µM)
MIC [41]: 0.4 µg/mL (≈ 0.506 µM)
ED50 [42]: 2.2 mg/kg
ED50 [43]: 128 mg/kg
Hematic levels in the healthy volunteer ([44]; 0.30 hours, 18 min): 0.27 µg/mL
Hematic levels in the healthy volunteer ([44]; 1 hour, 60 min): 0.58 µg/mL
concentration at 2 h ([44]; human, blood, po, 500 mg, 2 hours): 2100 ng/mL
concentration at 3 h ([44]; human, blood, po, 500 mg, 3 hours): 1410 ng/mL
concentration at 4 h ([44]; human, blood, po, 500 mg, 4 hours): 1310 ng/mL
Partial obstruction (% incidence) [45]: 20%
Total obstruction, compact plug (% incidence) [45]: 46.66%
Total obstruction, nodular mass (% incidence) [45]: 20%
Total obstruction, pimply mass (% incidence) [45]: 6.66%
bronchial epithelium reaction [46]: the bronchial epithelium reacts through a proliferation of cells, mainly cup-shaped cells
histological appearance of obstructed bronchial tract ([46]; obstructed): the bronchial obstruction is formed by abundant mucus admixed with fibrin
Hematic levels in the rat [47]: 0.04 µg/mL
concentration at 0.3 h [48]: 680 ng/mL
concentration at 1 h [48]: 1740 ng/mL
concentration at 2 h [48]: 2490 ng/mL
concentration at 3 h [48]: 1490 ng/mL
concentration at 4 h [48]: 610 ng/mL
concentration at 5 h [48]: 370 ng/mL
